Legend:
Type in all cases: functional, Homo sapiens
HL-60 [1] = assay: Compound at 1 uM was tested in vitro to inhibit proliferation of HL-60 leukemia cell line
HL-60 [2] = assay: Compound at 10 uM was tested in vitro to inhibit proliferation of HL-60 leukemia cell line
HL-60 [3] = assay: Compound at 100 uM was tested in vitro to inhibit proliferation of HL-60 leukemia cell line
K562 [4] = assay: Compound at 1 uM was tested in vitro to inhibit proliferation of K562 leukemia cell line
K562 [5] = assay: Compound at 10 uM was tested in vitro to inhibit proliferation of K562 leukemia cell line
K562 [6] = assay: Compound at 100 uM was tested in vitro to inhibit proliferation of K562 leukemia cell line

| SMILES | IG (HL-60 [1]) [%] | IG (HL-60 [2]) [%] | IG (HL-60 [3]) [%] | IG (K562 [4]) [%] | IG (K562 [5]) [%] | IG (K562 [6]) [%] |
| --- | --- | --- | --- | --- | --- | --- |
| CCCCCCCCCCCC[C@@H](O)[C@H]1CCC([C@H](O)CCCCC(=O)CCCCCCCC2=C[C@H](C)OC2=O)O1 (stereo partly specified) | 0 | 29 | 68 | 2 | 16 | 53 |
| CCCCCCCCCCOCCOCCOCCOCCCCC(O)CCCCCCCC1=C[C@H](C)OC1=O (stereo partly specified) | 21 | 65 | 100 | 22 | 25 | 55 |
| CCCCCCCCCCCOCCOCCOCCCCC(O)CCCCCCCC1=C[C@H](C)OC1=O (stereo partly specified) | 0 | 50 | 100 | 0 | 18 | 31 |
| CCCCCCCCCCCC[C@@H](O)[C@H]1CCC([C@H](O)CCCCC(O)CCCCCCCC2=C[C@H](C)OC2=O)O1 (mixture of isomers) | 5 | 56 | 63 | 0 | 2 | 10 |
| CCCCCCCCCC[C@@H](O)[C@@H]1CC[C@@H]([C@@H]2CC[C@@H]([C@H](O)CCCCCCCCCC(O)CC3=CC(C)OC3=O)O2)O1 (stereo partly specified) [BULLATACIN] | 0 | 7 | 73 | 27 | 39 | 53 |
| CCCCCCCCCCCC[C@@H](O)[C@H]1CC[C@H]([C@H](O)CCCCCCCCCCCCC2=C[C@H](C)OC2=O)O1 [REL-SOLAMIN] | 0 | 8 | 24 | 29 | 39 | 59 |

Reference: ChEMBL document CHEMBL1133104, “Polyether mimics of naturally occurring cytotoxic annonaceous acetogenins” (2000)
